In BindingDB's records for patent US20230348371 (Shanghai Senhui Medicine, 2023) one finds IC50 data, which are given here for one compound.

This test deals with ATP-binding cassette sub-family C member 8 (Homo sapiens, UniProt Q09428). Nature of the test: Binding Activity of the Compounds of the Present Disclosure for SUR1 Receptor. Here is the method: The plate was incubated at 4° C. for 1 h.f) The […]-96 GF/C and […]-96 GF/B plates were washed twice with Universal Harvester, each time with 50 mL of washing solution.g) The SUR1 receptor reaction system was transferred to a […]-96 GF/B plate with Universal Harvester, and 900 μL of washing solution was added to each well to wash the GF/B plate 4 times. The washed […]-96 GF/B plate was dried in an oven at 55° C. for 10 min.h) 40 μL of ULTIMA GOLD scintillation solution was added to each well, and the plate was read using Microbeta.
Sequence of ATP-binding cassette sub-family C member 8 (Q09428 whole entry): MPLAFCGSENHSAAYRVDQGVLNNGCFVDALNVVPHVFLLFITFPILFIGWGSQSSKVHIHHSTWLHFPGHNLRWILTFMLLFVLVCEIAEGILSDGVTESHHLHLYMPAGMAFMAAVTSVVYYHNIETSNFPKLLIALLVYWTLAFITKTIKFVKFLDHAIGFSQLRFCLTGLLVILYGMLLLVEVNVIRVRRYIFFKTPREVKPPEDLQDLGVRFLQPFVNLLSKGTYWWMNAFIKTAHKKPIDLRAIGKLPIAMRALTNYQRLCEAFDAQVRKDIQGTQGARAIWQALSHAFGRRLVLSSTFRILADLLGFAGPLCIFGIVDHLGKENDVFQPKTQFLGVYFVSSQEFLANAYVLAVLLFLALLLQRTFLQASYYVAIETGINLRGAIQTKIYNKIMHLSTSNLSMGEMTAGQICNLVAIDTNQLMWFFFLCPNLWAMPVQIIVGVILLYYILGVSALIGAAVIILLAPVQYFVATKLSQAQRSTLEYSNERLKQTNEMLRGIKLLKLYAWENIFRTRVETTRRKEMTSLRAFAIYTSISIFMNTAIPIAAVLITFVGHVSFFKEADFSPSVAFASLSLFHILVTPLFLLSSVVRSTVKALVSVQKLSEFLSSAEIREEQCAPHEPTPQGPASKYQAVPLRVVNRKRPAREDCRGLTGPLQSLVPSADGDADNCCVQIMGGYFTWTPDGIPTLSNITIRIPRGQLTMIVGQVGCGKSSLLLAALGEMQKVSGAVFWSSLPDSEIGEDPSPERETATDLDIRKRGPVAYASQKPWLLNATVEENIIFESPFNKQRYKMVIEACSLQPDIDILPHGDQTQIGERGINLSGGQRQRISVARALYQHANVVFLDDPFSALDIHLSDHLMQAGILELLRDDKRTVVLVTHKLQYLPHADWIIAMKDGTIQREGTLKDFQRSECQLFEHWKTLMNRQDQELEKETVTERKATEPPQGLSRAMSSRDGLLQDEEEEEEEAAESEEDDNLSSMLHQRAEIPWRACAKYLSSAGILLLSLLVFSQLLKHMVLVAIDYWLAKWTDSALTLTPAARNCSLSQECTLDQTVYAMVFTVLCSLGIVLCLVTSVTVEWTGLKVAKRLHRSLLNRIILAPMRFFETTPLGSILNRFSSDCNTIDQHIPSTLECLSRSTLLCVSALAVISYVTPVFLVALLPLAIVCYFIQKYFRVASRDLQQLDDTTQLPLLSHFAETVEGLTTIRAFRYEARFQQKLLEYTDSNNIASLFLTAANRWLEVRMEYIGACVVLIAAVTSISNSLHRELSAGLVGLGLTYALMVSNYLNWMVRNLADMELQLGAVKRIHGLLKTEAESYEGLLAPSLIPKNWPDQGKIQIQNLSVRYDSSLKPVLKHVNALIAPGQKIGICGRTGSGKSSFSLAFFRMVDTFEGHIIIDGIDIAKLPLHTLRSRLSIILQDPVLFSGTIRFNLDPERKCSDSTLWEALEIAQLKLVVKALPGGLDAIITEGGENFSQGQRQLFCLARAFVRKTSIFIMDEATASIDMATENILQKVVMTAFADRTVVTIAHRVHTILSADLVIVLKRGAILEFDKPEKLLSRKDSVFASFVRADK

What is called IC50 is the point on the concentration scale where inhibition reaches its midpoint. Low values mean higher potency, high ones lower potency.

Consider `COc1ccc(Cl)cc1C(=O)NCCc1ccc(S(=O)(=O)NC(=O)N[C@H]2CC[C@H](O)CC2)cc1` [US20230348371, Compound 4], for which the IC50 was determined as 8 nM.
